According to patent US6521764B1, “Process for the preparation of fumagillin” (Sanofi-Synthelabo, priority 1999, dated 2003):

How the values were obtained:
[1] = 2-week stability study of Fumagillin samples obtained by various methods, Fumagillin content by HPLC before and after stressing; assay type: physicochemical; settings: for HPLC Assay, After 2 weeks at 40° C., ambient humidity / HPLC Assay, Initial: 3 equivalent acetic acid; for HPLC Assay, Initial: before stressing
Method: We carried out a 2-week stability study at 40 OC , ambient humidity, of selected samples obtained by various methods. The Fumagillin content of the samples was measured by HPLC before and after the stressing.

[2] = at -80 °C; cited from earlier work
[3] = sample liberated from methanol, crude product
[4] = sample liberated from methanol-dichloromethane 5:1, crude product
[5] = sample liberated from toluene, crude product
[6] = sample liberated in aqueous medium, followed by extraction with dichloromethane, concentration and crystallization in methanol

CO[C@@H]1[C@H](OC(=O)/C=C/C=C/C=C/C=C/C(=O)O)CC[C@]2(CO2)[C@H]1[C@@]1(C)O[C@@H]1CC=C(C)C [Fumagillin]
HPLC Assay, After 2 weeks at 40° C., ambient humidity [1, 3]: 85.1% | HPLC Assay, Initial [1, 3]: 97.6% | HPLC Assay, After 2 weeks at 40° C., ambient humidity [1, 4]: 49.9% | HPLC Assay, Initial [1, 4]: 96.3% | HPLC Assay, After 2 weeks at 40° C., ambient humidity [1, 5]: 61.0% | HPLC Assay, Initial [1, 5]: 92.6% | HPLC Assay, After 2 weeks at 40° C., ambient humidity [1, 6]: 54.9% | HPLC Assay, Initial [1, 6]: 96.9% | Stability compared with samples obtained by other methods ([1]; samples obtained by the alcoholic method, 2 weeks at 40 °C, ambient humidity): considerably more stable | Stability on storage [2]: stable
